{"source": "patent US20020004072A1", "about": "“\"COMPOSITION PROVIDING A SUSTAINED RELEASE OF L-HISTIDINE AND METHODS OF MANUFACTURE THEREOF\"” (priority 1999, published 2002)", "test": "Bulk and tapped density measurement by standard pharmaceutical methods", "format": "physicochemical", "method": "Density measurements were carried out using standard pharmaceutical methods for the measurement of bulk and tapped density. A comparison of the apparent density of the freshly dispensed or bulk powder to that of powder after settling is shown in Table 4."}
{"smiles": "N[C@@H](Cc1c[nH]cn1)C(=O)O", "note": "[L-Histidine]", "values": [{"measurement": "Bulk Density", "setting": "freshly dispensed or bulk powder", "result": 0.55, "unit": "g/mL"}, {"measurement": "Tapped Density", "setting": "powder after settling", "result": 0.79, "unit": "g/mL"}]}
